Laboratory results published in the METLIN SMRT retention time set (Domingo-Almenara et al. 2019).

Assay: gradient 5% acetonitrile 3 min, to 50% in 2 min, to 85% in 15 min, held 3 min, 100 µL/min
Conditions: column: Zorbax Extend-C18 2.1 x 50 mm; eluents: water / acetonitrile, 0.1% formic acid
How it was run: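 Values are retention times taken from adduct peaks that software picked and an analyst inspected. The pure standards were run as mixtures of ~100 molecules on HPLC linked to a quadrupole time-of-flight mass spectrometer, in positive and negative ionization mode. A Zorbax Extend-C18 column (2.1 × 50 mm, 1.8 μm) was used at 100 μL/min with water and acetonitrile, each including 0.1% formic acid.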
`O=C(Nc1ccc(F)cc1F)Nc1c[nH]c2ccccc12` showed an RP-LC retention time of 755 s.
With `Cc1ccc(CNC(=O)C2CCCN(c3cc(=O)n(C)c(=O)n3C)C2)cc1` (centres undefined) the RP-LC retention time was 701 s.
`COc1ccc2nc(CN3CCN(S(=O)(=O)N(C)C)CC3)[nH]c2c1` showed an RP-LC retention time of 556 s.
`CC(C)(C)c1csc(-c2csc(S(=O)(=O)Nc3cccc(Cl)c3F)c2)n1` gave an RP-LC retention time of 1330 s.
Compound `Cc1ccc2c(C(=O)N3CCN(CC(C)C)CC3)cc(NC(=O)C3CCC3)cc2n1` has an RP-LC retention time of 562 s.
In the case of `O=C(O)c1ccc2c(c1Sc1ccccc1)C(=O)c1ccccc1C2=O`, the RP-LC retention time is reported as 887 s.
`CCOC(=O)c1[nH]c(C)c(CN(CC2CCCO2)C(=O)c2ccc(OC)cc2)c1C` (centres undefined) showed an RP-LC retention time of 852 s.
Compound `COc1ccc(-c2cc(N3CCC(NC(=O)c4ccc(OC)c(OC)c4)C3)n[nH]2)cc1` (centres undefined) has an RP-LC retention time of 655 s.
Compound `COc1cc(OC)c(NC(=O)CN2CCC(C(=O)N3CC(C)CC(C)C3)CC2)cc1Cl` (centres undefined) has an RP-LC retention time of 730 s.
`CCOc1ccc(OCC)c(NC(=O)C(=O)c2ccc[nH]2)c1` gave an RP-LC retention time of 1070 s.
Work on `Cc1ccc(S(=O)(=O)N2CCC(n3c(-c4ccco4)nc4cccnc43)C2)cc1F` (centres undefined) yielded an RP-LC retention time of 954 s.
In the case of `O=C(NCc1ccccc1)C1CCN(C(=O)c2ncn3c2COC(c2ccccc2)C3)CC1` (centres undefined), the RP-LC retention time is reported as 760 s.
For `Cc1oc2ccn(Cc3ccccc3F)c(=O)c2c1C(=O)NCc1ccccc1`, the RP-LC retention time was 1070 s.
In the case of `O=c1n(Cc2c(F)cccc2Cl)nc2ccc(S(=O)(=O)N3CCOCC3)cn12`, the RP-LC retention time is reported as 821 s.
With `CCCc1noc(-c2cccnc2N2CCCN(C(=O)Nc3cc(C)ccc3C)CC2)n1` the RP-LC retention time was 995 s.
With `CCN(CC)S(=O)(=O)c1cc(-c2nnc(-c3ccccc3)o2)ccc1C` the RP-LC retention time was 1080 s.
Compound `O=C(CN1CCC(c2nc(-c3ccc(F)cc3)no2)CC1)N1CCN(c2ccccc2)CC1` has an RP-LC retention time of 618 s.
`Cc1ccc(-c2nc(-c3ccc4c(c3)nnn4CCN(C)C)no2)cc1F` showed an RP-LC retention time of 708 s.
`Cc1ccc(NC(=O)C2CCN(S(=O)(=O)c3ccc4c(c3)NC(=O)CO4)CC2)c(C)c1` showed an RP-LC retention time of 732 s.
Compound `O=C(NCc1ccc(-c2nc(-c3ccc(F)cc3)no2)s1)C1CCC1` has an RP-LC retention time of 975 s.
`CCc1noc2nc(C)n(CC(=O)NCc3ccc(C)cc3)c(=O)c12` gave an RP-LC retention time of 829 s.
`CCC(NC(=O)c1ccc2c(c1)nc1n2CCN(Cc2ccccc2)C1=O)c1cccs1` (centres undefined) showed an RP-LC retention time of 836 s.
For `c1cc(-c2noc(C3CCC3)n2)cc(N2CCOCC2)n1`, the RP-LC retention time was 804 s.
For `O=C(N1CCCC(c2nnc(-c3cccs3)o2)C1)C1(c2ccccc2)CCOCC1` (centres undefined), the RP-LC retention time was 812 s.
In the case of `CC(C)c1cc(C(=O)NC2CCCC2)nc2ccnn12`, the RP-LC retention time is reported as 979 s.
`Nc1cc(C2CCN(S(=O)(=O)c3ccccc3)CC2)no1` showed an RP-LC retention time of 732 s.
In the case of `O=C([C@@H]1C[C@H](F)CN1C(=O)c1ccoc1)N1CCCCC1`, the RP-LC retention time is reported as 576 s.
`CCOC(=O)C1CCN(C(=O)Cn2c(=O)c3cccn3c3ccc(F)cc32)CC1` gave an RP-LC retention time of 802 s.
Work on `CC(C)Cn1c(=O)c2cc(C(=O)NCCCn3cccn3)nn2c2ccccc21` yielded an RP-LC retention time of 831 s.
Compound `COc1ccc(OC)c(C(C)NC(=O)CCc2ccc3nc[nH]c3c2)c1` (centres undefined) has an RP-LC retention time of 613 s.
In the case of `COc1cccc(CNC(=O)Cn2c(=O)c3cc(C)nn3c3ncccc32)c1`, the RP-LC retention time is reported as 698 s.
With `Cc1oc(-c2[nH]ncc2C(=O)N(C)C)cc1S(=O)(=O)NCc1ccccn1` the RP-LC retention time was 833 s.
For `COc1ccc(CC(=O)N2CCc3cn(C)c4cccc(c34)C2)cc1`, the RP-LC retention time was 946 s.
`Cc1cc(Nc2ccc(NC(=O)Cc3cccs3)cc2)nc(N2CCCC2)n1` gave an RP-LC retention time of 595 s.
`CCOC(=O)c1cc(S(=O)(=O)N2CCCC2C(=O)Nc2ccc(NC(C)=O)cc2)cn1C` (centres undefined) showed an RP-LC retention time of 718 s.
With `Cc1sc2ccn(C)c(=O)c2c1C(=O)N1CCC2(CC1)OCCO2` the RP-LC retention time was 626 s.
In the case of `COc1ccc(S(=O)(=O)N2CCCC(C(=O)NCc3ccccn3)C2)cc1OC` (centres undefined), the RP-LC retention time is reported as 604 s.
In the case of `Cc1c(Cl)cccc1S(=O)(=O)N1CCCC1c1nc(-c2ccc(F)cc2)no1` (centres undefined), the RP-LC retention time is reported as 1220 s.
`CCOc1ccc(-c2noc(Cc3nc(-c4cccc(OC)c4)cs3)n2)cc1` showed an RP-LC retention time of 1230 s.
Compound `Cc1ccc(C)c(C(=O)Nc2ccc3c(c2)Sc2ncccc2C(=O)N3C(C)C)c1` has an RP-LC retention time of 922 s.
For `COc1ccc(Cl)cc1NC(=O)c1n[nH]c2ccccc12`, the RP-LC retention time was 1010 s.
Work on `COc1ccc(NC(=O)NCC23CCC=C2N(C)C(=O)CC3)cc1` (centres undefined) yielded an RP-LC retention time of 745 s.
For `CCOc1ccc(CC(=O)N2CCN(c3ccc(-c4nc(C)cs4)cn3)CC2)cc1`, the RP-LC retention time was 883 s.
For `Cn1c(=O)c(NCc2cccc(C(F)(F)F)c2)nc2ccncc21`, the RP-LC retention time was 658 s.
`CCOc1nc2ccccc2nc1N1CCCC(C(=O)Nc2ccc(F)cc2F)C1` (centres undefined) showed an RP-LC retention time of 1220 s.
`COc1cc(-c2nc(C3CC(=O)N(c4ccc(C)cc4)C3)no2)cc(OC)c1OC` (centres undefined) gave an RP-LC retention time of 834 s.
Compound `COc1ccc(C(C)NC(=O)C2CCN(c3cncnc3N3CCCCC3)CC2)cc1` (centres undefined) has an RP-LC retention time of 685 s.
Work on `Cc1c(-c2noc(C(=O)NCCCN3CCCC(C)C3)n2)oc2ccccc12` (centres undefined) yielded an RP-LC retention time of 722 s.
In the case of `COc1cccc(N2CCN(c3nnc(-c4nnc(C)o4)c4ccccc34)CC2)c1`, the RP-LC retention time is reported as 922 s.
For `Cn1cc(CCNC(=O)Nc2ccccc2C(F)(F)F)c2cccnc21`, the RP-LC retention time was 779 s.
With `CCN1CCN(c2ccc(NC(C)=O)cn2)C1=O` the RP-LC retention time was 567 s.
`Cc1ccc(N2N=NC3C(=O)N(c4ccccc4)C(=O)C32)cc1F` (centres undefined) gave an RP-LC retention time of 1010 s.
In the case of `COc1cccc(N2CCN(c3ccnc(SCC(=O)Nc4cc(F)ccc4Cl)n3)CC2)c1`, the RP-LC retention time is reported as 836 s.
`CCc1cc(=O)n(CC(=O)Nc2ccc(C)cc2Cl)c(N2CCOCC2)n1` gave an RP-LC retention time of 942 s.
`Cc1cccc(Oc2cc(N3CCC(C(=O)NCCC4=CCCCC4)CC3)ncn2)c1C` showed an RP-LC retention time of 1110 s.
With `O=C(Nc1ccccc1)Nc1ccccc1` the RP-LC retention time was 767 s.
For `CCn1cc(CC(=O)NC2CCCCCC2)c2cccnc21`, the RP-LC retention time was 768 s.
In the case of `O=C(CN1C(=O)C2CCCCN2c2ccc(C(=O)N3CCCCC3)cc21)NC1CCCCC1` (centres undefined), the RP-LC retention time is reported as 889 s.
With `Cc1nc(-c2cccc(F)c2)sc1CCNC(=O)C(=O)Nc1ccccc1Cl` the RP-LC retention time was 1160 s.
Compound `O=C(NCCc1ccccc1)C(=O)NCC1COc2ccccc2O1` (centres undefined) has an RP-LC retention time of 960 s.
Compound `COc1ccc(NC(=O)c2nc(N3CCCC3)c3c(C)cc(C)nc3n2)cc1` has an RP-LC retention time of 656 s.
With `CCCC(=O)Nc1ccc(-n2cnc(C(=O)NCC)c2)nc1` the RP-LC retention time was 634 s.
Compound `CCn1c(=O)c(N2CCC(C(=O)NC3CCCCCCC3)CC2)nc2cccnc21` has an RP-LC retention time of 1080 s.
Compound `O=C(Cc1nnc(-c2ccc3ncccc3c2)o1)Nc1ccc(C(F)(F)F)cc1` has an RP-LC retention time of 827 s.
In the case of `O=S(=O)(c1cc(-c2nnc(C3CCCC3)o2)co1)N1CCC(N2CCCCC2)CC1`, the RP-LC retention time is reported as 670 s.
`O=S(=O)(c1cccc(F)c1)N1CC(c2nc(CCOCC3CCOCC3)no2)C1` gave an RP-LC retention time of 686 s.
`O=C(O)c1ccc(Nc2ncc3c(n2)-c2ccc(Cl)cc2C(c2c(F)cccc2F)=NC3)cc1` gave an RP-LC retention time of 947 s.
Compound `O=C(NCc1ccc(Cl)cc1)C1CCCN(c2cnc3nccnc3c2)C1` (centres undefined) has an RP-LC retention time of 731 s.
With `Cc1ccc(-c2nc3cnccn3c2NCCC(=O)NC2CC2)cc1` the RP-LC retention time was 616 s.
In the case of `CC1CN2C=NC(N3CCN(C(=O)Nc4ccc5c(c4)CCC5)CC3)=CC2=N1` (centres undefined), the RP-LC retention time is reported as 655 s.
Compound `CCCN1C(=O)C2CCC(=O)N2c2ccc(C(=O)Nc3ccc4c(c3)OCCO4)cc21` (centres undefined) has an RP-LC retention time of 770 s.
Work on `CCOC(=O)Cc1csc(NC(=O)c2ccc(-c3nc4ccccc4s3)s2)n1` yielded an RP-LC retention time of 1010 s.
Compound `CCc1ccc(CN2C(=O)c3c(C(=O)OC)ncn3CC2(C)C(=O)NCc2ccccc2)cc1` (centres undefined) has an RP-LC retention time of 801 s.
For `CCOC(=O)c1cc2n(n1)CC(C)(C(=O)NC1CCCC1)N(c1ccccc1F)C2=O` (centres undefined), the RP-LC retention time was 876 s.
Work on `COc1ccc(OC)c(NC(=O)C2c3ccccc3C(=O)N3CCc4ccccc4C23)c1` (centres undefined) yielded an RP-LC retention time of 903 s.
Work on `COCCNS(=O)(=O)c1cccc(-c2nnc(-c3ccc(C)cc3)o2)c1` yielded an RP-LC retention time of 880 s.
`CCc1cccc(NS(=O)(=O)c2cc3n(c2)CCN(C)C3=O)c1` showed an RP-LC retention time of 722 s.
Compound `Cc1ccc(NC(=O)CC2COc3ccccc3NC2=O)cc1C` (centres undefined) has an RP-LC retention time of 687 s.
`COc1ccccc1CN1CCc2nc(N3CCN(c4ncccn4)CC3)ncc2C1` showed an RP-LC retention time of 716 s.
In the case of `Cc1ccc(CNC(=O)CN2CCN(C(=O)Nc3ccc(Br)cc3)CC2=O)o1`, the RP-LC retention time is reported as 748 s.
With `Cc1ccc(C)c(CNC(=O)C2CCN(c3cncnc3N3CCOCC3)CC2)c1` the RP-LC retention time was 654 s.
For `CCCC(=O)Nc1nc2ccc(CCC(=O)Nc3cccc(C(=O)OCC)c3)cc2s1`, the RP-LC retention time was 950 s.
Work on `O=C(Nc1ccc(F)cc1)NC1CCN(c2ccc(F)cc2)C1=O` (centres undefined) yielded an RP-LC retention time of 783 s.
`COC(=O)C1=CN(c2cccc(SC)c2)c2cc(F)ccc2S1(=O)=O` gave an RP-LC retention time of 925 s.
`CN(CCc1noc(C2CN(Cc3c(F)cccc3Cl)C2)n1)S(C)(=O)=O` showed an RP-LC retention time of 594 s.
With `COc1ccc(C(=O)NC2CCN(c3ccc(F)cc3)C2=O)cc1F` (centres undefined) the RP-LC retention time was 806 s.
`CCn1cc(-c2nc(CC(=O)NCc3cccc(C)c3)cs2)c2cccnc21` gave an RP-LC retention time of 892 s.
In the case of `Nc1nc(F)nc2c1ncn2[C@@H]1O[C@H](CO)[C@@H](O)[C@@H]1O`, the RP-LC retention time is reported as 573 s.
`CCOC(=O)c1c(C)[nH]c(C(=O)N2CCCC(C(=O)NCCN3CCCCC3)C2)c1C` (centres undefined) showed an RP-LC retention time of 620 s.
